Test results taken from the kinase profiling compilation of Christmann-Franck et al. (2016).

What was measured:
Test in all cases: radiometric filter-binding kinase assay, Kinase HotSpot
Details in all cases: compound 0.5 µM; ATP 10 µM
ACVR1 (human) = ACVR1 (human) (UniProt Q04771)
AURKB (human) = AURKB (human) (UniProt Q96GD4)
BLK (human) = BLK (human) (UniProt P51451)
BMX (human) = BMX (human) (UniProt P51813)
BRSK2 (human) = BRSK2 (human) (UniProt Q8IWQ3)
CAMKK2 (human) = CAMKK2 (human) (UniProt Q96RR4)
CDK2 CCNE1 (human) = CDK2 CCNE1 (human) (UniProt P24941+P24864)
CLK1 (human) = CLK1 (human) (UniProt P49759)
DCLK2 (human) = DCLK2 (human) (UniProt Q8N568)
DYRK1A (human) = DYRK1A (human) (UniProt Q13627)
DYRK4 (human) = DYRK4 (human) (UniProt Q9NR20)
EPHA2 (human) = EPHA2 (human) (UniProt P29317)
EPHA3 (human) = EPHA3 (human) (UniProt P29320)
EPHA4 (human) = EPHA4 (human) (UniProt P54764)
EPHB1 (human) = EPHB1 (human) (UniProt P54762)
FGFR3 (human) = FGFR3 (human) (UniProt P22607)
FLT3 (human) = FLT3 (human) (UniProt P36888)
FRK (human) = FRK (human) (UniProt P42685)
GRK6 (human) = GRK6 (human) (UniProt P43250)
INSR (human) = INSR (human) (UniProt P06213)
KDR (human) = KDR (human) (UniProt P35968)
LIMK1 (human) = LIMK1 (human) (UniProt P53667)
MAP3K10 (human) = MAP3K10 (human) (UniProt Q02779)
MAPKAPK2 (human) = MAPKAPK2 (human) (UniProt P49137)
MARK4 (human) = MARK4 (human) (UniProt Q96L34)
MERTK (human) = MERTK (human) (UniProt Q12866)
MINK1 (human) = MINK1 (human) (UniProt Q8N4C8)
NTRK2 (human) = NTRK2 (human) (UniProt Q16620)
NUAK1 (human) = NUAK1 (human) (UniProt O60285)
PAK4 (human) = PAK4 (human) (UniProt O96013)
PAK6 (human) = PAK6 (human) (UniProt Q9NQU5)
PIM3 (human) = PIM3 (human) (UniProt Q86V86)
PNCK (human) = PNCK (human) (UniProt Q6P2M8)
PRKCI (human) = PRKCI (human) (UniProt P41743)
PRKD1 (human) = PRKD1 (human) (UniProt Q15139)
PTK6 (human) = PTK6 (human) (UniProt Q13882)
RPS6KA3 KD1 KD2 (human) = RPS6KA3 KD1 KD2 (human) (UniProt P51812)
SYK (human) = SYK (human) (UniProt P43405)
TGFBR2 (human) = TGFBR2 (human) (UniProt P37173)
WNK2 (human) = WNK2 (human) (UniProt Q9Y3S1)
WNK3 (human) = WNK3 (human) (UniProt Q9BYP7)
CAMKK1 (human) = CAMKK1 (human) (UniProt Q8N5S9)
Sequence of CAMKK1 (human) (Q8N5S9 whole entry, looked up): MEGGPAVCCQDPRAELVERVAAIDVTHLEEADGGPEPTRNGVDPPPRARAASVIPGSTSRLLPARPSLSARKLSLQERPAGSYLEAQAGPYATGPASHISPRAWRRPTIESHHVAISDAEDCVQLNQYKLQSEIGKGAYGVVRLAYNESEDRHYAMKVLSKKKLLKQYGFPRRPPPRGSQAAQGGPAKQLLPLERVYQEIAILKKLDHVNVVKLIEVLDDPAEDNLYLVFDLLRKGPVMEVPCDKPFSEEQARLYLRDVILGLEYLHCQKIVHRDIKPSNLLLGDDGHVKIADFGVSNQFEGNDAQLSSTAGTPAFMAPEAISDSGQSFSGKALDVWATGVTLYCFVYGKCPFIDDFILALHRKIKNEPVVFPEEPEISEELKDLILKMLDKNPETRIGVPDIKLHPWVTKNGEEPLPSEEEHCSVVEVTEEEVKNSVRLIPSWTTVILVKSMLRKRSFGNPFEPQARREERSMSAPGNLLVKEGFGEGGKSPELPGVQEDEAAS

Sequence of MAP3K10 (human) (Q02779 whole entry, looked up): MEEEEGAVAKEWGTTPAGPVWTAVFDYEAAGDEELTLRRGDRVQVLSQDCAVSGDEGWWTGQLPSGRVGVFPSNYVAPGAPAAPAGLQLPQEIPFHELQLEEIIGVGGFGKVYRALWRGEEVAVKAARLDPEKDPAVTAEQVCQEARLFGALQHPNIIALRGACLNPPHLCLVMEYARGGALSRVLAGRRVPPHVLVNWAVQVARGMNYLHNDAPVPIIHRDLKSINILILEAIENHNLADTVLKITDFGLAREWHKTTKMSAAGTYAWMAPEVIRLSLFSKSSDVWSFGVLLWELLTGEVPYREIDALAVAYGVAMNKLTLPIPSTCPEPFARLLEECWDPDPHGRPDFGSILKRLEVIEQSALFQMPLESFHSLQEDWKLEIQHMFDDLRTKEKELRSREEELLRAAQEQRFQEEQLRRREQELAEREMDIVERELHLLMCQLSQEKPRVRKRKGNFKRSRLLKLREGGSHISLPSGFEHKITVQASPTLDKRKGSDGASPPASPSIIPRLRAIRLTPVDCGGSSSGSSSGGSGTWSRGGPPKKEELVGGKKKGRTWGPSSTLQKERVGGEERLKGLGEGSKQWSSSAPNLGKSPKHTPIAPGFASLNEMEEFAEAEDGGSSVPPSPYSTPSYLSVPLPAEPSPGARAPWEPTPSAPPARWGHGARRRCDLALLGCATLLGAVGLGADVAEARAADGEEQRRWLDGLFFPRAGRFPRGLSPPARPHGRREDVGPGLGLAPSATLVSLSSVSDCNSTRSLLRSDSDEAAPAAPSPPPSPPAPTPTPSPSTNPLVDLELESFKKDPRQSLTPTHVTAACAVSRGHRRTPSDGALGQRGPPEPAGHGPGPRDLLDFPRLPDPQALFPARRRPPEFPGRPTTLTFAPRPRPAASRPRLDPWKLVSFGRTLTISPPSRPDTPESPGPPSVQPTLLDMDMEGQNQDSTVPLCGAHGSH
Sequence of INSR (human) (P06213 whole entry, looked up): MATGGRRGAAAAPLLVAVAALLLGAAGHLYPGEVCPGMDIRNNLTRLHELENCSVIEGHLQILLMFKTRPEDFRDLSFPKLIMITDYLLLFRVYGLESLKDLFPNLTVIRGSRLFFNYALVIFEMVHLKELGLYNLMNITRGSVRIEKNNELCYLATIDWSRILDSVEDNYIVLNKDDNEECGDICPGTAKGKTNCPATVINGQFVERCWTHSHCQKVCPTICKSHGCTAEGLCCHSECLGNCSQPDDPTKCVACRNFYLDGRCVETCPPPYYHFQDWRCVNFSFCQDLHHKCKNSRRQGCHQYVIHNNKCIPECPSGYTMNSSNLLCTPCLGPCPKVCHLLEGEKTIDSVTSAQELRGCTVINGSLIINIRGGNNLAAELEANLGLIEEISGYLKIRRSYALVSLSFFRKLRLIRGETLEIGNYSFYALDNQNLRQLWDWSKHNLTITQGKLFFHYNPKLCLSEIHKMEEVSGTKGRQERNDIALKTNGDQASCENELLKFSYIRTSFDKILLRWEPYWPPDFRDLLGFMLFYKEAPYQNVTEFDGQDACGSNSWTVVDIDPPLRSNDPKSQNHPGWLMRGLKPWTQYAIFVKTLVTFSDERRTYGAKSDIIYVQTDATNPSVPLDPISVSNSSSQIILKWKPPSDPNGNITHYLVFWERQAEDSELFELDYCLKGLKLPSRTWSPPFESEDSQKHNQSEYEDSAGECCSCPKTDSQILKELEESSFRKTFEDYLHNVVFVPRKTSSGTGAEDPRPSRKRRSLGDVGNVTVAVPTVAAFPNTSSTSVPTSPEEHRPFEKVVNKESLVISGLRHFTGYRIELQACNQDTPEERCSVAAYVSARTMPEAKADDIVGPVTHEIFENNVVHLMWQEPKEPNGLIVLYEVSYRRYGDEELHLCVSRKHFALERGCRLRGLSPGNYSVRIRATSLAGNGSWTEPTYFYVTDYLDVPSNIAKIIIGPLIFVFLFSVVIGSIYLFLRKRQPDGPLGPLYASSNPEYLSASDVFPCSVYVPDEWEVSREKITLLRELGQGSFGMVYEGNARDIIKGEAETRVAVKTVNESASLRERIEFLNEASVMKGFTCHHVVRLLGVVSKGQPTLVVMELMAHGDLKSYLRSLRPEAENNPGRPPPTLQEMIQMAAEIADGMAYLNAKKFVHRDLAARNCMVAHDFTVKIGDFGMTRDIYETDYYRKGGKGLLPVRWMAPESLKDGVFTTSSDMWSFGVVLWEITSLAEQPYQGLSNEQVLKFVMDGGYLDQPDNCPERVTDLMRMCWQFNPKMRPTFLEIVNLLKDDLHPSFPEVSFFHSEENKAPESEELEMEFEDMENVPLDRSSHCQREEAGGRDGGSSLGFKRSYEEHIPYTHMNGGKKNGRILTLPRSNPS
Sequence of NTRK2 (human) (Q16620 whole entry, looked up): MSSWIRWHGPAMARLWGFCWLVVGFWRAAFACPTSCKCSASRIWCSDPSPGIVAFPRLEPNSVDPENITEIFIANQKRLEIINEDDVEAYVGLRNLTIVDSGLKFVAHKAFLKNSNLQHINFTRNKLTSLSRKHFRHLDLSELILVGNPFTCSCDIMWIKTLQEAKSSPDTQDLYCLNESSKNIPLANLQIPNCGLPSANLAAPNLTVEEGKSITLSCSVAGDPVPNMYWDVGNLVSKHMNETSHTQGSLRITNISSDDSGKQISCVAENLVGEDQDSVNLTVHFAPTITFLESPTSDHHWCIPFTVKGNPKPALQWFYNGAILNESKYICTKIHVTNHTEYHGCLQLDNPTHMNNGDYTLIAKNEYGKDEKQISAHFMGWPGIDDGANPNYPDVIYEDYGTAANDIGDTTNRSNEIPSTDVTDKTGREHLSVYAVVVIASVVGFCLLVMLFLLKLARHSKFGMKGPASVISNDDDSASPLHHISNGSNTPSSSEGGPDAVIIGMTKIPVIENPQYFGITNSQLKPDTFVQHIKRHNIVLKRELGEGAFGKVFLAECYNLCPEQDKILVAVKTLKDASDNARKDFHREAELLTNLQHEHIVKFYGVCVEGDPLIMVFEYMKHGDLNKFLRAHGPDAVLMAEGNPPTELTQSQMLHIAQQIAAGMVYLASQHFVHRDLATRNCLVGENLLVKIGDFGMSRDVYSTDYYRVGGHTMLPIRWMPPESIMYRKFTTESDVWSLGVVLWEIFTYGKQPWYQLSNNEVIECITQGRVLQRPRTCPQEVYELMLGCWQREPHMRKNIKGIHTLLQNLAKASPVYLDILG
Sequence of EPHA2 (human) (P29317 whole entry, looked up): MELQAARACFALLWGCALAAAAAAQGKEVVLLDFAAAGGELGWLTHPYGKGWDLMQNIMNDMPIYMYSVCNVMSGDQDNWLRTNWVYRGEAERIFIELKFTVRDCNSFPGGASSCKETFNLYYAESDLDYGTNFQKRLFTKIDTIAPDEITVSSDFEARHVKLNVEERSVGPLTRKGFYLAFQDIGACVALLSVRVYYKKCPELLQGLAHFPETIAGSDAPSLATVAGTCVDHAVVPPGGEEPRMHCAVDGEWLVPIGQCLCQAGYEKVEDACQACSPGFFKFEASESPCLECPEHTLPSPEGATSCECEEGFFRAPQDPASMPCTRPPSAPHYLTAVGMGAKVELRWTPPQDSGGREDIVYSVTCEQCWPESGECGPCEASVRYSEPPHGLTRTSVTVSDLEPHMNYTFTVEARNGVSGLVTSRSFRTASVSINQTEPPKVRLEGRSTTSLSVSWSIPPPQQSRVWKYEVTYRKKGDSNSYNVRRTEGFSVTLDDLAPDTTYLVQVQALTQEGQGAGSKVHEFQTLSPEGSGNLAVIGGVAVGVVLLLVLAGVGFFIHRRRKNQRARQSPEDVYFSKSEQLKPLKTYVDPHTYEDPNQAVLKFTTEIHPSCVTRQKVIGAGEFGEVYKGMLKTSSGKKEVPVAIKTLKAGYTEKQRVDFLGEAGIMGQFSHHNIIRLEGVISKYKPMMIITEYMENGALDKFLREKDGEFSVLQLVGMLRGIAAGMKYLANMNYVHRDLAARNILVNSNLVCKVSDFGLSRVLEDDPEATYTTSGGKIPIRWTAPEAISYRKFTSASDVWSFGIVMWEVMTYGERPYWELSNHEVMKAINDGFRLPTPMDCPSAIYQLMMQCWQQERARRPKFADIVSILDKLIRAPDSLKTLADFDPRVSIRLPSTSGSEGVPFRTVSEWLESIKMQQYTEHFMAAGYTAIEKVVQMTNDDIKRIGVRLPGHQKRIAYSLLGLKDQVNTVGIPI

## O=C(CCCc1ccc(-c2ccccc2F)cc1)Nc1ccc(O)cc1
ACVR1 (human)
  residual activity: 95.2%
AURKB (human)
  residual activity: 106%
BLK (human)
  residual activity: 101%
BMX (human)
  residual activity: 99.6%
BRSK2 (human)
  residual activity: 99.2%
CAMKK2 (human)
  residual activity: 86.6%
CDK2 CCNE1 (human)
  residual activity: 91.9%
CLK1 (human)
  residual activity: 101%
DCLK2 (human)
  residual activity: 96.1%
DYRK1A (human)
  residual activity: 106%
DYRK4 (human)
  residual activity: 97.4%
EPHA2 (human)
  residual activity: 101%
EPHA3 (human)
  residual activity: 100%
EPHA4 (human)
  residual activity: 99.2%
EPHB1 (human)
  residual activity: 96.4%
FGFR3 (human)
  residual activity: 103%
FLT3 (human)
  residual activity: 104%
FRK (human)
  residual activity: 91.9%
GRK6 (human)
  residual activity: 104%
INSR (human)
  residual activity: 102%
KDR (human)
  residual activity: 101%
LIMK1 (human)
  residual activity: 106%
MAP3K10 (human)
  residual activity: 88.8%
MAPKAPK2 (human)
  residual activity: 103%
MARK4 (human)
  residual activity: 124%
MERTK (human)
  residual activity: 98.8%
MINK1 (human)
  residual activity: 97.3%
NTRK2 (human)
  residual activity: 95.8%
NUAK1 (human)
  residual activity: 96.4%
PAK4 (human)
  residual activity: 95.4%
PAK6 (human)
  residual activity: 108%
PIM3 (human)
  residual activity: 104%
PNCK (human)
  residual activity: 102%
PRKCI (human)
  residual activity: 95.5%
PRKD1 (human)
  residual activity: 98.4%
PTK6 (human)
  residual activity: 102%
RPS6KA3 KD1 KD2 (human)
  residual activity: 95.8%
SYK (human)
  residual activity: 101%
TGFBR2 (human)
  residual activity: 101%
WNK2 (human)
  residual activity: 106%
WNK3 (human)
  residual activity: 109%

## Cn1sc(=O)n(Cc2ccccc2)c1=O
ACVR1 (human)
  residual activity: 102%
AURKB (human)
  residual activity: 102%
BLK (human)
  residual activity: 101%
BMX (human)
  residual activity: 91.6%
BRSK2 (human)
  residual activity: 99.4%
CAMKK1 (human)
  residual activity: 114%
CAMKK2 (human)
  residual activity: 95.2%
CDK2 CCNE1 (human)
  residual activity: 95.1%
CLK1 (human)
  residual activity: 112%
DCLK2 (human)
  residual activity: 98.5%
DYRK1A (human)
  residual activity: 92.6%
DYRK4 (human)
  residual activity: 99.3%
EPHA2 (human)
  residual activity: 96.5%
EPHA3 (human)
  residual activity: 107%
EPHA4 (human)
  residual activity: 110%
EPHB1 (human)
  residual activity: 100%
FGFR3 (human)
  residual activity: 100%
FLT3 (human)
  residual activity: 99.1%
FRK (human)
  residual activity: 112%
GRK6 (human)
  residual activity: 104%
INSR (human)
  residual activity: 93.7%
KDR (human)
  residual activity: 89.4%
LIMK1 (human)
  residual activity: 101%
MAP3K10 (human)
  residual activity: 99.5%
MAPKAPK2 (human)
  residual activity: 102%
MARK4 (human)
  residual activity: 85.1%
MERTK (human)
  residual activity: 92.8%
MINK1 (human)
  residual activity: 88.7%
NUAK1 (human)
  residual activity: 102%
PAK4 (human)
  residual activity: 104%
PAK6 (human)
  residual activity: 93.4%
PIM3 (human)
  residual activity: 120%
PNCK (human)
  residual activity: 98.7%
PRKCI (human)
  residual activity: 95.2%
PRKD1 (human)
  residual activity: 101%
PTK6 (human)
  residual activity: 96.7%
RPS6KA3 KD1 KD2 (human)
  residual activity: 97.5%
SYK (human)
  residual activity: 92.2%
TGFBR2 (human)
  residual activity: 123%
WNK2 (human)
  residual activity: 99.1%
WNK3 (human)
  residual activity: 101%

## O=C1Cc2c([nH]c3ccc(Br)cc23)-c2ccccc2N1
ACVR1 (human)
  residual activity: 162%
AURKB (human)
  residual activity: 84.3%
BMX (human)
  residual activity: 99.6%
BRSK2 (human)
  residual activity: 62.7%
CAMKK1 (human)
  residual activity: 99.8%
CAMKK2 (human)
  residual activity: 77.8%
CDK2 CCNE1 (human)
  residual activity: 51.9%
CLK1 (human)
  residual activity: 96.7%
DCLK2 (human)
  residual activity: 94.6%
DYRK1A (human)
  residual activity: 98.8%
DYRK4 (human)
  residual activity: 97.2%
EPHA2 (human)
  residual activity: 98.3%
EPHA3 (human)
  residual activity: 96%
EPHA4 (human)
  residual activity: 96.1%
EPHB1 (human)
  residual activity: 93.5%
FGFR3 (human)
  residual activity: 101%
FLT3 (human)
  residual activity: 47.7%
FRK (human)
  residual activity: 97.4%
GRK6 (human)
  residual activity: 105%
INSR (human)
  residual activity: 101%
KDR (human)
  residual activity: 98.1%
LIMK1 (human)
  residual activity: 99.2%
MAP3K10 (human)
  residual activity: 79.3%
MAPKAPK2 (human)
  residual activity: 101%
MARK4 (human)
  residual activity: 60.2%
MERTK (human)
  residual activity: 89.5%
MINK1 (human)
  residual activity: 29.6%
NTRK2 (human)
  residual activity: 95%
NUAK1 (human)
  residual activity: 14.6%
PAK4 (human)
  residual activity: 92.2%
PAK6 (human)
  residual activity: 97.8%
PIM3 (human)
  residual activity: 84.6%
PNCK (human)
  residual activity: 99.6%
PRKCI (human)
  residual activity: 89.1%
PRKD1 (human)
  residual activity: 101%
PTK6 (human)
  residual activity: 87.7%
SYK (human)
  residual activity: 81.5%
TGFBR2 (human)
  residual activity: 74.2%
WNK2 (human)
  residual activity: 112%
WNK3 (human)
  residual activity: 95.5%

## COc1ccc(CNC(=O)Nc2ncc([N+](=O)[O-])s2)cc1
ACVR1 (human)
  residual activity: 99.5%
AURKB (human)
  residual activity: 97.1%
BMX (human)
  residual activity: 90.8%
BRSK2 (human)
  residual activity: 93.1%
CAMKK1 (human)
  residual activity: 119%
CAMKK2 (human)
  residual activity: 92.7%
CDK2 CCNE1 (human)
  residual activity: 97.6%
CLK1 (human)
  residual activity: 106%
DCLK2 (human)
  residual activity: 99.2%
DYRK1A (human)
  residual activity: 95.6%
DYRK4 (human)
  residual activity: 97.7%
EPHA2 (human)
  residual activity: 100%
EPHA3 (human)
  residual activity: 111%
EPHA4 (human)
  residual activity: 101%
EPHB1 (human)
  residual activity: 102%
FGFR3 (human)
  residual activity: 108%
FLT3 (human)
  residual activity: 98.9%
FRK (human)
  residual activity: 97.2%
GRK6 (human)
  residual activity: 99.6%
KDR (human)
  residual activity: 85.7%
LIMK1 (human)
  residual activity: 96%
MAP3K10 (human)
  residual activity: 97.9%
MAPKAPK2 (human)
  residual activity: 112%
MARK4 (human)
  residual activity: 92.2%
MERTK (human)
  residual activity: 91.1%
MINK1 (human)
  residual activity: 90.5%
NTRK2 (human)
  residual activity: 85.6%
NUAK1 (human)
  residual activity: 99.7%
PAK4 (human)
  residual activity: 115%
PAK6 (human)
  residual activity: 106%
PIM3 (human)
  residual activity: 108%
PNCK (human)
  residual activity: 99.3%
PRKCI (human)
  residual activity: 94.4%
PRKD1 (human)
  residual activity: 104%
PTK6 (human)
  residual activity: 99.6%
SYK (human)
  residual activity: 98.6%
TGFBR2 (human)
  residual activity: 117%
WNK2 (human)
  residual activity: 104%
WNK3 (human)
  residual activity: 101%

## Nc1nccc(-c2c(-c3ccc(F)cc3)ncn2C2CCNCC2)n1
ACVR1 (human)
  residual activity: 86.5%
AURKB (human)
  residual activity: 103%
BLK (human)
  residual activity: 102%
BMX (human)
  residual activity: 92.9%
BRSK2 (human)
  residual activity: 96.6%
CAMKK1 (human)
  residual activity: 103%
CAMKK2 (human)
  residual activity: 110%
CDK2 CCNE1 (human)
  residual activity: 92.1%
CLK1 (human)
  residual activity: 98.2%
DCLK2 (human)
  residual activity: 99.9%
DYRK1A (human)
  residual activity: 96.3%
DYRK4 (human)
  residual activity: 99.3%
EPHA2 (human)
  residual activity: 102%
EPHA3 (human)
  residual activity: 97.4%
EPHA4 (human)
  residual activity: 99.8%
EPHB1 (human)
  residual activity: 99.9%
FGFR3 (human)
  residual activity: 100%
FLT3 (human)
  residual activity: 90.3%
FRK (human)
  residual activity: 95.4%
GRK6 (human)
  residual activity: 98.2%
KDR (human)
  residual activity: 102%
LIMK1 (human)
  residual activity: 89.6%
MAP3K10 (human)
  residual activity: 99.8%
MAPKAPK2 (human)
  residual activity: 97.6%
MARK4 (human)
  residual activity: 97.4%
MERTK (human)
  residual activity: 98%
MINK1 (human)
  residual activity: 96.1%
NTRK2 (human)
  residual activity: 103%
NUAK1 (human)
  residual activity: 98.4%
PAK4 (human)
  residual activity: 95.1%
PAK6 (human)
  residual activity: 111%
PIM3 (human)
  residual activity: 96%
PNCK (human)
  residual activity: 94.3%
PRKCI (human)
  residual activity: 98.5%
PRKD1 (human)
  residual activity: 54.6%
PTK6 (human)
  residual activity: 73.4%
RPS6KA3 KD1 KD2 (human)
  residual activity: 92.2%
SYK (human)
  residual activity: 98%
TGFBR2 (human)
  residual activity: 119%
WNK2 (human)
  residual activity: 93.1%
WNK3 (human)
  residual activity: 95.3%
